Several values for one entry are separate records, joined by “and”; a condition that tells them apart may be missing. Equal values may be shown once. Read-outs that look alike come from different tables or passages of the source.
Tests used:
[1] = ATR-FTIR of lipids extracted from forearm stratum corneum with added diglyceride (vCH2 vibration); format: physicochemical; settings: 40° C., 3 μg of diglyceride for 30 μg of sample; for influence on the organisation of the intercorneocytory lipids (vCH2, FIG. 2): versus extract devoid of diglyceride
Description: In order to evaluate the change in the organisation of the lipid phases of the stratum corneum, the inventors used infrared spectroscopy (ATR-FTIR: Attenuated total reflectance—Fourier transform infrared Spectroscopy) to analyse the variation, under the effect of the temperature, of the fundamental vibration bands of the vCH2 aliphatic chains of these lipids. More particularly, the position of the absorption band, corresponding to the stretching of the CH2, is located around wave number 2848 cm^−1. By way of example, an increase in the temperature of the surface of the skin causes a displacement of this bands to the higher wave numbers.
The study was carried out on lipids extracted from the stratum corneum of the forearm in order to have a model as close as possible to reality. We have used infrared spectroscopy (ATR-FTIR), to examine the variation, in function of temperature, of fundamental vCH2 vibration bands of aliphatic chains.
The tests were carried out in similar experimental conditions using lipids extracts from the forearm wherein a standardized quantity of diglyceride is added (3 μg of diglyceride for 30 μg of sample).
The test of the example 2 was reproduced with 1,2-distearoyl-rac-glycerol (1,2 diglyceride) and compared to the test carried out with glyceryl 1,3-distearate (1,3 diglyceride).

[2] = tested on: stratum corneum lipids of human skin explants; assay: FTIR measurement of human skin explants with or without pre-treatment (position of CH2 symmetric stretching band)
Protocol: The skin samples were heated at the rate of 1° C./min, and spectra were collected between 28° C. and 43° C.
Lipids organization—FTIR measurement: After 30 min of pre-treatment, FTIR measurements were performed to evaluate the molecular organization of the lipid matrix in the stratum corneum. The procedure is based on the study of the position of the CH2 symmetric stretching band, around 2850 cm^−1, depending on the temperature: the skin samples were heated at the rate of 1° C./min and spectra were collected between 28° C. and 43° C. with and without pre-treatment. The position of the CH2 symmetric stretching band is characteristic of the lipid organization and can be related to the barrier function.
FTIR measurement of skin explant (position of CH2 symmetric stretching band) depending on the temperature;
FTIR measurements were performed on human skin explants (8 donors) with or without pre-treatment. The skin samples were heated at the rate of 1° C./min, and spectra were collected between 28° C. and 43° C.

[3] = tested on: intercorneocytory lipids of the skin; assay: In vivo ATR-FTIR on the inner forearm of healthy volunteers after application of glyceryl 1,3-distearate; set-up: species or system human; settings: for Δ νCH2, Average / Δ νCH2, single subjects: 40° C., versus control zone
Protocol: This study was carried out on health volunteers. The collection of infrared data was done through the intermediary of the ATR-FTIR sensor on the inner face of the forearm on a zone of 10 cm^2.
A treated zone (with application in vivo of glyceryl 1,3 distearate) and a control zone (without application of glyceryl 1,3 distearate) were determined.
Two concentrations in glyceryl 1,3-distearate were evaluated (table 2: 0.5 mg/cm^2 and table 3: 0.15 mg/cm^2).
At T0: the skin is first heated to between 30 and 45° C.
Then after application in vivo of glyceryl 1,3-distearate on the treated zone, an evaluation is made of the variation in the wave number associated with the vCH2 vibration comparatively to the reference measurement without product applied (control zone) at different times after T0: T 30 minutes, T 1 h30 minutes and T 4 hours.
Tables 2 and 3: express the variation of the wave number associated with the vCH2 vibration of the aliphatic chains of the intercorneocytory lipids at 40° C. in the presence of glyceryl 1,3-distearate comparatively to the reference measurement without glyceryl 1,3-distearate.

[4] = tested on: Human skin; assay: Benzo[a]pyrene skin penetration study, Franz diffusion cell; format: in vitro ADME; settings: for B(a)P at Surface, percentage of the applied dose (Mean) / B(a)P in Receptor fluid, percentage of the applied dose (Mean) / B(a)P in Skin, percentage of the applied dose (Mean) / B(a)P in Stratum corneum, percentage of the applied dose (Mean): n = 8
Protocol: (§1) In order to evaluate the impact of 1,3-diglycerides on the organization of stratum corneum lipids and barrier function, in vitro, skin penetration studies of a known pollutant (benzo[a]pyrene (B(a)P) has been developed and performed. On the same donors, FTIR (Fourier transform infrared) measurement and B(a)P skin penetration were assessed to link lipid organization and the “outside-in” skin barrier function modulations, when the skin is heated up to 42° C.
(§2) Secondly, the impact of pre-treatment with 3% and 15% of glyceryl 1,3 distearate formulated in dimethicone on the modification of the SC (stratum corneum) lipid organization and B(a)P skin penetration provoked by the temperature elevation has been evaluated.
(§3) • OECD Guidelines for the testing of chemicals: guideline 428, skin absorption: in vitro method (13 Apr. 2004); • SCCS Guidelines, basic criteria for the in-vitro assessment of dermal absorption of cosmetics ingredients, updated March 2006.
(§4) For the skin delivery study, two temperatures were set. The classical temperature at the surface of the skin for skin delivery studies is 32° C. This temperature corresponds to the temperature at the surface of the skin in vivo. […]
(§5) The skin penetration study was carried out on 8 donors, the same donor was used for all the conditions:
(§6) The study was carried out on 8 donors, the same donor was used for all the conditions. B(a)P recovery should be comprised between 85% and 115% of the applied dose, in accordance with OECD 428 and SCCS guidelines.
(§7) • % of the applied dose at surface, stratum corneum, skin and receptor fluid; • μg/cm^2 of B(a)P at surface, stratum corneum, skin and receptor fluid. Results were presented with 2 decimals for the percentages and the quantities in μg/cm^2. Formula used in this report: • Standard error of the mean: • sem=Sd/√n • Bioavailability:
(§8) Sum of the quantities found in the skin and receptor fluid.
(§9) The inter-group comparison was performed by a paired Student's t-test with Graph Pad Prism software. The statistical analysis can be interpreted if n>5.

[5] = as above; format: in vitro ADME, human; settings: human, without pre-treatment, 24 h, read-out: bioavailability (skin + receptor fluid) of benzo[a]pyrene, % of the dose applied to the skin
Protocol: as §1, §2, §3, §4, §5, §6, §7, §8, §9

[6] = 0.15 mg/cm^2 (table title), 30 min
[7] = 0.15 mg/cm^2 (table title), 1 h 30
[8] = 0.15 mg/cm^2 (table title), 4 h
[9] = 3% pre-treatment in dimethicone, 32° C., 24 h
[10] = 3% pre-treatment in dimethicone, 42° C., 24 h
[11] = 15% pre-treatment in dimethicone, 32° C., 24 h
[12] = 15% pre-treatment in dimethicone, 42° C., 24 h

In the case of `CCCCCCCCCCCCCCCCCC(=O)OCC(CO)OC(=O)CCCCCCCCCCCCCCCCC` (racemic) [1,2-distearoyl-rac-glycerol], the “Δ νCH2: variation in the wave number of the νCH2 vibration of the aliphatic chains of the intercorneocytory lipids, with or without diglyceride” value [1] is reported as -0.65 cm⁻¹.

For `CCCCCCCCCC(=O)OCC(O)COC(=O)CCCCCCCCC` [1,3-dicaprin], the “influence on the organisation of the intercorneocytory lipids (vCH2, FIG. 2)” value [1] was “no influence”.

With `CCCCCCCCCCCC(=O)OCC(O)COC(=O)CCCCCCCCCCC` [1,3-dilauroylglycerol] the “influence on the organisation of the intercorneocytory lipids (vCH2, FIG. 2)” value [1] was “no influence”.

With `CCCCCCCCCCCCCCCCCC(=O)OCC(O)COC(=O)CCCCCCCCCCCCCCCCC` [glyceryl 1,3-distearate] the “position of the CH2 symmetric stretching band” value ([2]; 3% in dimethicone as pre-treatment, 30 min, 43° C., basal 2852.12) was 2848.7 cm⁻¹, the “shift of the CH2 symmetric stretching band induced by the heating of the skin” value ([2]; 3% pre-treatment, 28° C. to 43° C., 0.81 without pre-treatment) was 0.05 cm⁻¹ and the “impact of the heating on the lipid organization” value ([2]; pre-treatment with 3% or 15%, T tests, p value<0.05) was “decrease significantly”. The “Δ νCH2, Average” value [3, 6] was -2.02 cm⁻¹, the “Δ νCH2, single subjects” value [3, 6] was -1.87 cm⁻¹ and -2.16 cm⁻¹ and the “Δ νCH2, Average” value [3, 7] was -2.08 cm⁻¹. The “Δ νCH2, single subjects” value [3, 7] was -1.91 cm⁻¹ and -2.25 cm⁻¹, the “Δ νCH2, Average” value [3, 8] was -1.89 cm⁻¹ and the “Δ νCH2, single subjects” value [3, 8] was -1.64 cm⁻¹ and -2.15 cm⁻¹. For the same molecule, the “Δ νCH2, Average” value ([3]; 0.5 mg/cm^2, 30 min) was -2.46 cm⁻¹, the “Δ νCH2, single subjects” value ([3]; 0.5 mg/cm^2, 30 min) was -2.56 cm⁻¹ and -3.02 cm⁻¹ and -2.71 cm⁻¹ and the “Δ νCH2, Average” value ([3]; 0.5 mg/cm^2, 1 h 30) was -2.41 cm⁻¹. For the same molecule, the “Δ νCH2, single subjects” value ([3]; 0.5 mg/cm^2, 1 h 30) was -2.65 cm⁻¹ and -2.62 cm⁻¹ and -2.6 cm⁻¹, the “Δ νCH2, Average” value ([3]; 0.5 mg/cm^2, 4 h) was -2.17 cm⁻¹ and the “Δ νCH2, single subjects” value ([3]; 0.5 mg/cm^2, 4 h) was -2.6 cm⁻¹ and -2.29 cm⁻¹ and -2.18 cm⁻¹. For the same molecule, the “persistence of the stabilising effect after application” value ([3]; skin heated between 30 and 45° C.) was “at least 4 hours”, the “organisation of the intercorneocytory spaces of the skin” value ([3]; skin heated between 30 and 45° C., normal conditions of use) was “stabilise the organisation of the intercorneocytory spaces” and the “Δ νCH2: variation in the wave number of the νCH2 vibration of the aliphatic chains of the intercorneocytory lipids, with or without diglyceride” value [1] was -1.43 cm⁻¹. The “B(a)P at Surface, percentage of the applied dose (Mean)” value (“B(a)P at Surface, percentage” below) [4, 9] was 94.66%, the “B(a)P in Receptor fluid, percentage of the applied dose (Mean)” value (from here on “B(a)P in Receptor fluid, percentage”) [4, 9] was 0.05% and the “B(a)P in Skin, percentage of the applied dose (Mean)” value (from here on “B(a)P in Skin, percentage”) [4, 9] was 2.09%. For the same molecule, the “B(a)P in Stratum corneum, percentage of the applied dose (Mean)” value (“B(a)P in Stratum corneum, percentage” below) [4, 9] was 0.82%, the “B(a)P at Surface, percentage” value [4, 10] was 90.39% and the “B(a)P in Receptor fluid, percentage” value [4, 10] was 0.17%. For the same molecule, the “B(a)P in Skin, percentage” value [4, 10] was 5.18%, the “B(a)P in Stratum corneum, percentage” value [4, 10] was 0.90% and the “B(a)P at Surface, percentage” value [4, 11] was 94.99%. For the same molecule, the “B(a)P in Receptor fluid, percentage” value [4, 11] was 0.04%, the “B(a)P in Skin, percentage” value [4, 11] was 1.87% and the “B(a)P in Stratum corneum, percentage” value [4, 11] was 0.77%. The “B(a)P at Surface, percentage” value [4, 12] was 92.68%, the “B(a)P in Receptor fluid, percentage” value [4, 12] was 0.15% and the “B(a)P in Skin, percentage” value [4, 12] was 4.40%. For the same molecule, the “B(a)P in Stratum corneum, percentage” value [4, 12] was 0.75% and the “penetration of benzo[a]pyrene compared to the basal state and the vehicle” value ([4]; dose of 3% or 15%, skin maintained in an atmosphere at 42° C.) was “significant decrease”.

For `c1ccc2c(c1)cc1ccc3cccc4ccc2c1c34` [B(a)P, benzo[a]pyrene, reference compound], the bioavailability at 24 h ([5]; skin temperature 32° C.) was no more than 2.95%, the bioavailability at 24 h ([5]; skin temperature 42° C.) was 6.95% and the “B(a)P concentration in the receptor fluid corresponding to the worst case” value ([4]; human) was 12.51 µg/L. The “percentage of B(a)P found in the receptor fluid, worst case” value ([4]; human) was 0.13 % of the applied dose, the “B(a)P recovered at the surface, % of the applied dose” value ([4]; human, 24 h) was “up to 94.5%” and the “bioavailability (skin + receptor fluid) of benzo[a]pyrene, % of the dose applied to the skin” value ([4]; without pre-treatment, skin temperature 32° C., 24 h) was 2.95%.
